Source: article PMC4864329, “In vitro and in vivo efficacy, toxicity, bio-distribution and resistance selection of a novel antibacterial drug candidate” (Scientific Reports, 2016)
Values joined by “and” are separate entries in the source; they are usually repeats but may differ in a detail not shown here. Identical values can stand only once.

Tests used:
[1] = test system: Pseudomonas aeruginosa clinical isolates; assay: MIC by standard microdilution, clinical isolates of Pseudomonas aeruginosa; format: cell-based
Method: Minimum inhibitory concentrations (MICs) of SET-M33L were determined against 76 clinical isolates of Pseudomonas aeruginosa and 73 clinical isolates of Klebsiella pneumoniae. The isolates were selected on the basis of their resistance phenotypes and major antibiotic resistance determinants, including resistance to colistin and carriage of carbapenemase-encoding genes (Table 1 and supplemental Tables S1 and S2).
MIC values were determined against a large collection of clinical isolates. Most isolates were collected during routine susceptibility testing procedures at the Clinical Microbiology Unit of Careggi University Hospital in Florence, while specific isolates were selected according to their phenotype or genotype (e.g. carriage of carbapenemase-encoding genes, inclusion in epidemic bacterial clones, resistance to colistin) from a collection of isolates already available at Department of Medical Biotechnologies, University of Siena. Detailed features of each strain, including relevant resistance phenotypes and genotypes were reported in supplemental Tables S1 and S2. MICs were determined in triplicate using a standard microdilution assay according to the guidelines of the Clinical and Laboratory Standards Institute[34]. SET-M33L was assayed using concentrations in the range 0.09–11.2 μM (0.5–64 μg/mL); testing was performed using a bacterial inoculum of 5 × 10^4 CFU/well prepared in cation-supplemented Mueller-Hinton broth (MHB) (Becton Dickinson, Franklin Lakes, NJ, USA) in a final volume of 100 μl. Results were recorded after 18–20 h of incubation at 35 °C.

[2] = test system: K. pneumoniae strain KKBO-1; format: cell-based, Klebsiella pneumoniae; details: K. pneumoniae KKBO-1
Method: (§1) Tests were performed by plating cells on SET-M33L- or colistin-containing MHB.

BALB/c mice = assay: Acute toxicity in mice, single i.v. dose; format: in vivo, mouse; details: for mortality: single i.v. dose 10 mg/Kg
Method: As preliminary toxicity evaluation we first compared the acute toxicity of SET-M33L and SET-M33L-PEG with that of colistin. Animals (10 BALB/c mice/group) were injected i.v. with different amounts of SET-M33L, SET-M33L-PEG or colistin, in single dose, in the range 5–40 mg/kg (Fig. 4), and were monitored for 4 days after inoculation of the peptide. […] At 40 mg/Kg SET-M33L and SET-M33L-PEG produced similar toxicity profiles with strong signs of toxicity and 90–100% mortality after 96 hours. Colistin produced strong signs of toxicity already at 10 mg/Kg: 50% mortality immediately after inoculation and 70% mortality after 24 hours. Colistin induced sudden death in 100% of mice at 20 and 40 mg/Kg.
Mice were treated by a single i.v. administration of different amounts (40, 20, 10, 5 mg/Kg) of SET-M33L, SET-M33L-PEG or colistin sulfate (Sigma-Aldrich, C4461). Signs of toxicity were checked four times a day by visual inspection. A toxicity score was assigned for the following signs: wiry coat and poor motility = mild signs; very wiry coat, abundant lachrymation and poor motility even under stimulation = manifest signs. Animals were monitored for 4 days after inoculation of the peptide. Mice were weighed every day from arrival to the last day of the experiment. Moribund animals were killed humanely to avoid unnecessary distress.

[3] = test system: K. pneumoniae strain KKBO-1; assay: In vitro selection of resistant mutants on peptide-containing MHB agarose; format: cell-based, Klebsiella pneumoniae; details: KKBO-1, same experimental conditions
Method: as §1
Selection was performed on an MHB-based selection medium containing 1% low electro-osmosis agarose as solidifying agent and 11.2 μM SET-M33L (64 μg/mL). Agarose was preferred to agar as solidifying agent due to the observed loss of antimicrobial activity of SET-M33L in selection media solidified with the latter, possibly due to the charged nature of agar. Klebsiella pneumoniae KKBO-1 strain was grown in MHB at 37 °C to OD600 0.35 and up to 5 × 10^9 colony forming units (CFU) were spread on Petri dishes containing 20 ml of the selection medium. Plates were incubated for 16–18 h at 37 °C. Colistin-containing selection medium (equimolar concentration with respect to SET-M33L) was used as control for the selection of colistin-resistant mutants. Experiments were performed in triplicate.

colistin sulfate
MIC ([1]; isolate SI_P1, phenotype none): ≤ 0.5 µg/mL
MIC ([1]; isolate SI_P2, CARB, β/I, ESC, FQ, AG, blaVIM): 2 µg/mL
MIC ([1]; isolate SI_P3, phenotype none): 2 µg/mL
MIC ([1]; isolate SI_P4, CARB, β/I, ESC, FQ, AG): ≤ 0.5 µg/mL
MIC ([1]; isolate SI_P5, CARB, ESC, β/I, FQ, AG): ≤ 0.5 µg/mL
MIC ([1]; isolate SI_P6, phenotype none): 2 µg/mL
MIC ([1]; isolate SI_P7, CARB, β/I, ESC, FQ, AG): ≤ 0.5 µg/mL
MIC ([1]; isolate SI_P8, CARB, ESC, AG): ≤ 0.5 µg/mL
MIC ([1]; isolate SI_P9, CARB, β/I, ESC, FQ, AG): ≤ 0.5 µg/mL
MIC ([1]; isolate SI_P10, CARB, β/I, ESC, FQ, AG): ≤ 0.5 µg/mL
MIC ([1]; isolate SI_P11, CARB, β/I, ESC, FQ, AG): 2 µg/mL
MIC ([1]; isolate SI_P12, CARB, β/I, ESC, FQ): 2 µg/mL
MIC ([1]; isolate SI_P13, phenotype none): 2 µg/mL
MIC ([1]; isolate SI_P14, CARB): 2 µg/mL
MIC ([1]; isolate SI_P15, CARB, β/I, ESC, FQ, AG): ≤ 0.5 µg/mL
MIC ([1]; isolate SI_P16, CARB, β/I, ESC, FQ, AG): 2 µg/mL
MIC ([1]; isolate SI_P17, CARB, β/I, ESC, FQ, AG, blaVIM): ≤ 0.5 µg/mL
MIC ([1]; isolate SI_P18, phenotype none): 1 µg/mL
MIC ([1]; isolate SI_P19, phenotype none): 2 µg/mL
MIC ([1]; isolate SI_P20, phenotype none): ≤ 0.5 µg/mL
MIC ([1]; isolate SI_P21, FQ, AG): 1 µg/mL
MIC ([1]; isolate SI_P22, phenotype none): ≤ 0.5 µg/mL
MIC ([1]; isolate SI_P23, phenotype none): ≤ 0.5 µg/mL
MIC ([1]; isolate SI_P24, phenotype none): ≤ 0.5 µg/mL
MIC ([1]; isolate SI_P25, AG): ≤ 0.5 µg/mL
MIC ([1]; isolate SI_P26, phenotype none): ≤ 0.5 µg/mL
MIC ([1]; isolate SI_P27, CARB): ≤ 0.5 µg/mL
MIC ([1]; isolate SI_P28, phenotype none): ≤ 0.5 µg/mL
MIC ([1]; isolate SI_P29, phenotype none): ≤ 0.5 µg/mL
MIC ([1]; isolate SI_P30, phenotype none): ≤ 0.5 µg/mL
MIC ([1]; isolate SI_P31, phenotype none): ≤ 0.5 µg/mL
MIC ([1]; isolate SI_P32, phenotype none): ≤ 0.5 µg/mL
MIC ([1]; isolate SI_P33, CARB, β/I, ESC, FQ): ≤ 0.5 µg/mL
MIC ([1]; isolate SI_P34, CARB, β/I): ≤ 0.5 µg/mL
MIC ([1]; isolate SI_P35, CARB, β/I, ESC, FQ): 2 µg/mL
MIC ([1]; isolate SI_P36, CARB, AG): ≤ 0.5 µg/mL
MIC ([1]; isolate SI_P37, CARB, β/I, ESC, FQ, AG): ≤ 0.5 µg/mL
MIC ([1]; isolate SI_P38, CARB, β/I, ESC, FQ, AG, blaVIM): ≤ 0.5 µg/mL
MIC ([1]; isolate SI_P39, CARB, β/I, ESC, FQ, AG, blaVIM): ≤ 0.5 μg/mL and ≤ 0.4 μM
MIC ([1]; isolate SI_P40, phenotype none): ≤ 0.5 μg/mL and ≤ 0.4 μM
MIC ([1]; isolate SI_P41, CARB, β/I, ESC, FQ, AG): ≤ 0.5 μg/mL and ≤ 0.4 μM
MIC ([1]; isolate SI_P42, phenotype none): ≤ 0.5 μg/mL and ≤ 0.4 μM
MIC ([1]; isolate SI_P43, FQ): ≤ 0.4 μM and ≤ 0.5 μg/mL
MIC ([1]; isolate SI_P44, CARB, ESC, FQ, AG): ≤ 0.5 μg/mL and ≤ 0.4 μM
MIC ([1]; isolate SI_P45, phenotype none): ≤ 0.5 μg/mL and ≤ 0.4 μM
MIC ([1]; isolate SI_P46, phenotype none): ≤ 0.5 μg/mL and ≤ 0.4 μM
MIC ([1]; isolate SI_P47, phenotype none): ≤ 0.5 μg/mL and ≤ 0.4 μM
MIC ([1]; isolate SI_P48, phenotype none): ≤ 0.5 μg/mL and ≤ 0.4 μM
MIC ([1]; isolate SI_P49, CARB, β/I, ESC, FQ, AG): ≤ 0.5 μg/mL and ≤ 0.4 μM
MIC ([1]; isolate SI_P50, phenotype none): ≤ 0.5 μg/mL and ≤ 0.4 μM
MIC ([1]; isolate SI_P51, CARB, β/I, ESC, FQ, AG): ≤ 0.5 μg/mL and ≤ 0.4 μM
MIC ([1]; isolate SI_P52, CARB, AG): ≤ 0.5 μg/mL and ≤ 0.4 μM
MIC ([1]; isolate SI_P53, CARB, β/I, ESC, FQ): ≤ 0.5 μg/mL and ≤ 0.4 μM
MIC ([1]; isolate SI_P54, CARB, β/I, FQ, AG): ≤ 0.5 μg/mL and ≤ 0.4 μM
MIC ([1]; isolate SI_P55, phenotype none): ≤ 0.5 μg/mL and ≤ 0.4 μM
MIC ([1]; isolate SI_P56, CARB): ≤ 0.5 μg/mL and ≤ 0.4 μM
MIC ([1]; isolate SI_P57, β/I): ≤ 0.5 μg/mL and ≤ 0.4 μM
MIC ([1]; isolate SI_P58, FQ, AG): ≤ 0.5 μg/mL and ≤ 0.4 μM
MIC ([1]; isolate SI_P59, β/I, ESC): ≤ 0.5 μg/mL and ≤ 0.4 μM
MIC ([1]; isolate SI_P60, CARB, β/I, ESC, FQ, AG, blaVIM): 2 μg/mL and 1.5 μM
MIC ([1]; isolate SI_P61, CARB, β/I, ESC, FQ, AG, blaVIM): ≤ 0.5 μg/mL and ≤ 0.4 μM
MIC ([1]; isolate SI_P62, CARB, β/I, ESC, FQ, AG, blaVIM): 2 μg/mL and 1.5 μM
MIC ([1]; isolate SI_P63, CARB, β/I, ESC, FQ, AG, blaVIM): ≤ 0.5 μg/mL and ≤ 0.4 μM
MIC ([1]; isolate SI_P64, CARB, β/I, ESC, FQ, AG): ≤ 0.5 μg/mL and ≤ 0.4 μM
MIC ([1]; isolate SI_P65, CARB, β/I, ESC, FQ, AG): 2 μg/mL and 1.5 μM
MIC ([1]; isolate SI_P66, CARB, FQ): ≤ 0.5 μg/mL and ≤ 0.4 μM
MIC ([1]; isolate SI_P67, CARB, β/I, ESC, FQ, AG, blaVIM): ≤ 0.5 μg/mL and ≤ 0.4 μM
MIC ([1]; isolate SI_P68, phenotype none): ≤ 0.5 μg/mL and ≤ 0.4 μM
MIC ([1]; isolate SI_P69, CARB): 2 μg/mL and 1.5 μM
MIC ([1]; isolate SI_P70, CARB): ≤ 0.5 μg/mL and ≤ 0.4 μM
MIC ([1]; isolate SI_P71, phenotype none): ≤ 0.5 μg/mL and ≤ 0.4 μM
MIC ([1]; isolate SI_P72, FQ, AG): 2 μg/mL and 1.5 μM
MIC ([1]; isolate SI_P73, β/I): ≤ 0.5 μg/mL and ≤ 0.4 μM
MIC ([1]; isolate SI_P74, phenotype none): ≤ 0.5 μg/mL and ≤ 0.4 μM
MIC ([1]; isolate SI_P75, CARB, β/I, ESC, FQ, AG, blaIMP): 2 μg/mL and 1.5 μM
MIC ([1]; isolate SI_P76, CARB, β/I, ESC, FQ, AG, blaIMP): 1 μg/mL and 0.7 μM
MIC [2]: 0.15 µM
mortality (BALB/c mice; after 24 hours): 70%
mortality (BALB/c mice; immediately after inoculation): 50%
sudden death (BALB/c mice; single i.v. dose 20 mg/Kg): 100%
sudden death (BALB/c mice; single i.v. dose 40 mg/Kg): 100%
times more prone to select resistant mutants than SET-M33L [3]: at least 500
